Like-named read-outs stand apart in the source and are kept apart here.
Columns and labels:
male OFl mice = assay: Pentetrazole seizure (mortality after i.p. pentetrazole 125 mg/kg); type: in vivo; details: for ED50: Mus musculus, po, 0.25 h; for Pentetrazole seizure, % protection: 15 minutes
Procedure: This test was carried out on batches of 10 male OFl mice which had fasted since the day before and were placed in individual cages, in accordance with the method of Cheymol (J.) Acta. Pharmacol., (1950), 2, 1-55.
The treatments were carried out perorally 15 minutes before intraperitoneal (i.p.) injection of a solution of pentetrazole (125 mg/kg).
The mortality is recorded 3 hours after this injection.
It is to be noted that the 50% effective doses (ED50), where these have been determined, were calculated by the method of MOOD (J. Am. Statist. Assoc., (1965), 60, 967-78).

male Swiss mice = assay: Maximum electrical seizure; type: in vivo; details: for ED50: Mus musculus, po, 0.25 h, read-out: Maximum electrical seizure, ED50; for Maximum electrical seizure, % protection: peroral, 15 minutes
Text: Maximum electrical seizure
The technique used is that recommended by GOODMAN (L. S.), SING-GREWALD (M.), BROWN (V. C.) and […] (E. A.), Am.
The animals tested are male Swiss mice grouped into batches of 10. The normal threshold of the electric shock which is capable of causing tonic extension of the front paws is first determined for each animal.

mouse = assay: Ouabain seizure; type: in vivo; details: po, 0.25 h, read-out: Ouabain seizure, ED50
Procedure: Ouabain was administered intra-ventricularly at a dose of 5 γ/mouse in a volume of 0.02 ml.

mice [1] = assay: β-Mercaptopropionic acid seizure; type: in vivo; details: for ED50: Mus musculus, po, 0.25 h, read-out: β-Mercaptopropionic acid seizure, ED50; for β-Mercaptopropionic acid seizure, % protection: at 400 mg/kg, peroral, 15 minutes
Procedure: β-Mercaptopropionic acid seizure
β-Mercaptopropionic acid is an inhibitor of glutamatedecarboxylase (GAD), which is an enzyme which catalyses the conversion of glutamate to γ-aminobutyric acid (GABA). Its action thus manifests itself in a lowering of the GABA level and the occurrence of general tonico-clonic seizures 3 to 4 minutes after it has been administered. β-Mercaptopropionic acid was administered to mice intraperitoneally at a dose of 40 mg/kg.

mice [2] = assay: Anoxia as a result of confinement; type: in vivo; details: Mus musculus, ip, read-out: Anoxia as a result of confinement, % increase in the survival time
Procedure: Anoxia as a result of confinement
Mice (in batches of 20) are placed in a 200 cm^3 hermetically sealed chamber (a wide-mouthed glass vessel) which is under normal pressure and has a normal content of atmospheric oxygen. All of the treatments are administered intraperitoneally immediately before introduction into the chamber. The animal is considered to be dead at the moment when breathing stops.
Since the wide-mouthed vessels chosen are very small, the motor activity of the animals is extremely low and this eliminates, in principle, the possibility of a positive result due to a sedative effect.
Therefore, the percentage increase in the survival time of the treated animals is noted, relative to the batch.

[3] = Sedative activity: Rotarod test; type: in vivo, mice (male); details: mouse, in vivo, po
Procedure: (§1) This test is used for the purpose of assessing the ability of the animals to coordinate their movements. It uses a wooden cylinder which has a diameter of 4.8 cm and revolves at a speed of 4 revolutions/minute. The test is carried out on male mice weighing about 22 g. The products are administered perorally (p.o.) to batches of 10 animals per dose. The animals are placed on the apparatus 15 minutes after administration of the product. The percentage of mice which lose their equilibrium reflex, that is to say which become incapable of retaining their balance on the cylinder for a period of 2 minutes, is noted.
(§2) Using the regression straight line method, a 50% neurotoxic dose (NTD 50) is calculated, which thus expresses the average level of the first neuromuscular effects under the influence of the studied product.

Acute toxicity, peroral = details: mouse, in vivo, po
Procedure: In order to locate the boundary separating the pharmacological effects from the toxicity of the products, a very approximate assessment of the toxicity was carried out on mice (batches of 10 animals) after peroral treatment.

male mice = assay: Sedative activity: Rotarod test; type: in vivo; details: peroral, mice
Procedure: as §1, §2

[4] = read-out: Pentetrazole seizure, ED50
[5] = peroral, 15 minutes after administration, male mice, read-out: Sedative activity, Rotarod test, ED50
[6] = read-out: DE 50, Pentetrazole crisis test
[7] = Table III, mice, peroral, 15 minutes after administration, read-out: DE 50, Pentetrazole crisis test
[8] = ouabain 5 γ/mouse intra-ventricularly, measured 15 minutes after peroral treatment
[9] = Table IV, mice, measured 15 minutes after peroral treatment, read-out: Pentetrazole seizure, ED50
[10] = mice, measured 15 minutes after peroral treatment
[11] = β-mercaptopropionic acid 40 mg/kg i.p., mice, 15 minutes after peroral treatment
[12] = at 50 mg/kg, intraperitoneal, mice

CC1(C(=O)[O-])CCCCC1.[Na+]
ED50 (male OFl mice; [4]): 317 mg/kg
ED50 (male Swiss mice): 563 mg/kg
ED50 (mouse; Mus musculus): 600 mg/kg
ED50 (mice [1]): 118 mg/kg
ILS at 160 mg/kg (mice [2]): 29%
TD50 at 0.25 h [3, 5]: 1020 mg/kg
mortality (Acute toxicity, peroral; at 1882 mg/kg, peroral, mice): 50%

O=C([O-])C1(Cc2ccccc2)CCCCC1.[Na+]
ED50 (male OFl mice; [4]): 116 mg/kg
ED50 (male Swiss mice): 431 mg/kg
ED50 (mouse; Mus musculus): 638 mg/kg
ED50 (mice [1]): 257 mg/kg
ILS at 170 mg/kg (mice [2]): 44%
TD50 at 0.25 h [3, 5]: 650 mg/kg
mortality (Acute toxicity, peroral; 1000 mg/kg, at 1,000 mg/kg, peroral, mice): 20%

O=C([O-])C1(CC(Br)=CBr)CCCCC1.[Na+]
ED50 (male OFl mice; [4]): 240 mg/kg
Maximum electrical seizure, % protection (male Swiss mice; at 600 mg/kg, mice): 60%
ED50 (mouse; Mus musculus): > 900 mg/kg
ED50 (mice [1]): 340 mg/kg
ILS at 190 mg/kg (mice [2]): 50%
TD50 at 0.25 h [3, 5]: 280 mg/kg
mortality (Acute toxicity, peroral; at 600 mg/kg, peroral, mice): 0%

C#CCC1(C(=O)[O-])CCCCC1.[Na+]
ED50 (male OFl mice; [4]): 120 mg/kg
ED50 (male Swiss mice): 478 mg/kg
ED50 (mouse; Mus musculus): 507 mg/kg
ED50 (mice [1]): 245 mg/kg
ILS at 280 mg/kg (mice [2]): 48%
Rotarod test, % of failures (male mice; at 550 mg/kg): 40%
mortality (Acute toxicity, peroral; at 950 mg/kg, peroral, mice): 10%

CCCC(CCC)C(=O)[O-].[Na+] [Depakene, sodium dipropyl-acetate, reference compound]
ED50 (male OFl mice; [6]): 142 mg/kg

CCC1(C(=O)O)CCCCC1 [Example 15]
ED50 (male OFl mice; [7]): 120 mg/kg

CC(C)C1(C(=O)O)CCCCC1 [Example 16]
ED50 (male OFl mice; [7]): 110 mg/kg

C#CC1(C(=O)O)CCCCC1 [Example 17]
Pentetrazole seizure, % protection (male OFl mice; at 170 mg/kg, peroral, mice): 30%
Maximum electrical seizure, % protection (male Swiss mice; at 170 mg/kg, mice): 13%
ED50 (mouse; [8]): 933 mg/kg
ILS at 210 mg/kg (mice [2]; at 210 mg/kg, intraperitoneal, mice): 23%
Rotarod test, % of failures (male mice; at 500 mg/kg): 0%

C=C(Cl)C1(C(=O)O)CCCCC1 [Example 18]
Pentetrazole seizure, % protection (male OFl mice; at 200 mg/kg, peroral, mice): 40%
ED50 (mouse; [8]): 851 mg/kg
ILS at 260 mg/kg (mice [2]; at 260 mg/kg, intraperitoneal, mice): 40%
Rotarod test, % of failures (male mice; at 600 mg/kg): 0%

C=CCC1(C(=O)[O-])CCCCC1.[Na+] [Example 22, Sodium 1-allyl-1-cyclohexyl-carboxylate]
ED50 (male OFl mice; [4]): 154 mg/kg
Maximum electrical seizure, % protection (male Swiss mice; at 200 mg/kg, mice): 80%
ED50 (mouse; [8]): 638 mg/kg
ILS at 240 mg/kg (mice [2]): 59%
Rotarod test, % of failures (male mice; at 600 mg/kg): 20%

C=C(Cl)CC1(C(N)=O)CCCCC1 [Example 24, 1-(2'-chloro-2'-propenyl)-1-cyclohexyl-carboxamide]
ED50 (male OFl mice; [9]): 57 mg/kg
ED50 (male Swiss mice; [10]): 101 mg/kg
ED50 (mouse; [8]): 96 mg/kg
ED50 (mice [1]; [11]): 64 mg/kg
ILS at 50 mg/kg (mice [2]; [12]): 0%
TD50 at 0.25 h [3]: 125 mg/kg
mortality (Acute toxicity, peroral; 500 mg/kg): 20%

NC(=O)C1(CBr)CCCCC1 [Example 26]
ED50 (male OFl mice; [4]): 75 mg/kg
ED50 (mice [1]; [11]): 46 mg/kg
ILS at 50 mg/kg (mice [2]): 6%
TD50 at 0.25 h [3, 5]: 125 mg/kg
mortality (Acute toxicity, peroral; at 500 mg/kg, peroral, mice): 0%

C=CCC1(C(N)=O)CCCCC1 [Example 27]
ED50 (male OFl mice; [9]): 20 mg/kg
ED50 (male Swiss mice; [10]): 55 mg/kg
ED50 (mouse; [8]): 66 mg/kg
ED50 (mice [1]; [11]): 38 mg/kg
ILS at 50 mg/kg (mice [2]; [12]): 0%
TD50 at 0.25 h [3]: 75 mg/kg
mortality (Acute toxicity, peroral; 500 mg/kg): 100%

CC1(C(N)=O)CCCCC1 [Example 28]
ED50 (male OFl mice; [9]): 178 mg/kg
ED50 (male Swiss mice; [10]): 311 mg/kg
ED50 (mice [1]; [11]): 100 mg/kg
ILS at 70 mg/kg (mice [2]; at 70 mg/kg, intraperitoneal, mice): 30%
TD50 at 0.25 h [3]: 425 mg/kg
mortality (Acute toxicity, peroral; 752 mg/kg): 50%

CC(C)C1(C(N)=O)CCCCC1 [Example 29]
ED50 (male OFl mice; [9]): 15 mg/kg
ED50 (male Swiss mice; [10]): 70 mg/kg
ED50 (mouse; [8]): 31 mg/kg
ED50 (mice [1]; [11]): 12 mg/kg
ILS at 25 mg/kg (mice [2]; at 25 mg/kg, intraperitoneal, mice): 16%
TD50 at 0.25 h [3]: 35 mg/kg
mortality (Acute toxicity, peroral; 500 mg/kg): 100%

C#CCC1(C(N)=O)CCCCC1 [Example 30]
ED50 (male OFl mice; [4]): 65 mg/kg
ED50 (male Swiss mice; [10]): 91 mg/kg
ED50 (mouse; [8]): 170 mg/kg
TD50 at 0.25 h [3, 5]: 125 mg/kg
mortality (Acute toxicity, peroral; at 500 mg/kg, peroral, mice): 20%

COCC1(C(N)=O)CCCCC1 [Example 31]
ED50 (male OFl mice; [9]): 195 mg/kg
ED50 (male Swiss mice; [10]): 200 mg/kg
ED50 (mouse; [8]): 250 mg/kg
TD50 at 0.25 h [3]: 300 mg/kg
mortality (Acute toxicity, peroral; 500 mg/kg): 0%

NC(=O)C1(Cc2ccccc2)CCCCC1 [Example 32]
ED50 (male OFl mice; [9]): 32 mg/kg
ED50 (male Swiss mice; [10]): 115 mg/kg
ED50 (mouse; [8]): 200 mg/kg
ED50 (mice [1]; [11]): 200 mg/kg
ILS at 50 mg/kg (mice [2]; [12]): 0%
TD50 at 0.25 h [3]: 125 mg/kg

O=C(O)C1(CC#CBr)CCCCC1 [Example 35, 1-(3-bromo-2-propynyl)-1-cyclohexyl-carboxylic acid]
ED50 (male OFl mice; [9]): 335 mg/kg
Maximum electrical seizure, % protection (male Swiss mice; at 735 mg/kg, mice): 20%
β-Mercaptopropionic acid seizure, % protection (mice [1]; mice): 30%
TD50 at 0.25 h [3]: 245 mg/kg
mortality (Acute toxicity, peroral; at 735 mg/kg, peroral, mice): 0%

C=CC1(C(=O)[O-])CCCCC1.[Na+] [Example 37, Sodium 1-vinyl-1-cyclohexyl-carboxylate]
ED50 (male OFl mice; [4]): 95 mg/kg

CC(C)(Cl)C1(C(N)=O)CCCCC1 [Example 39, 1-(1-chloro-1-methylethyl)-1-cyclohexyl-carboxamide]
ED50 (male OFl mice; [9]): 66 mg/kg
ED50 (mice [1]; [11]): 63 mg/kg

CC(C)(C)C1(C(=O)[O-])CCCCC1.[Na+] [Example 41, Sodium 1-tert-butyl-1-cyclohexyl-carboxylate]
ED50 (male OFl mice; [6]): 131 mg/kg

CC(C)(C)C1(C(N)=O)CCCCC1 [Example 42, 1-tert-butyl-1-cyclohexyl-carboxamide]
ED50 (male OFl mice; [9]): 79 mg/kg
ED50 (mice [1]; [11]): 95 mg/kg

CC(=O)CC1(C(=O)[O-])CCCCC1.[Na+] [Example 46, Sodium 1-acetonyl-1-cyclohexyl-carboxylate]
ED50 (male OFl mice; [4]): 300 mg/kg
ED50 (mouse; [8]): > 900 mg/kg
ED50 (mice [1]; [11]): 270 mg/kg
Rotarod test, % of failures (male mice; at 600 mg/kg): 0%

O=C(CBr)CC1(C(=O)O)CCCCC1 [Example 47, 1-bromoacetonyl-1-cyclohexyl-carboxylic acid]
Pentetrazole seizure, % protection (male OFl mice; at 395 mg/kg, peroral, mice): 0%
β-Mercaptopropionic acid seizure, % protection (mice [1]; mice): 30%
ILS at 130 mg/kg (mice [2]; at 130 mg/kg, intraperitoneal, mice): 24%
mortality (Acute toxicity, peroral; at 790 mg/kg, peroral, mice): 30%

NC(=O)C1(CCOc2ccccc2)CCCCC1 [Example 54, 1-(2-phenoxyethyl)-1-cyclohexyl-carboxamide]
ED50 (male OFl mice; [9]): 198 mg/kg
ED50 (mice [1]; [11]): 86 mg/kg
TD50 at 0.25 h [3]: 160 mg/kg

COCC1(C(=O)O)CCCCC1 [Example 55]
ED50 (male OFl mice; [9]): 190 mg/kg
Maximum electrical seizure, % protection (male Swiss mice; at 190 mg/kg, mice): 0%
ED50 (mouse; [8]): 950 mg/kg
Rotarod test, % of failures (male mice; at 600 mg/kg): 0%
